We go through 22 compounds from patent publication US9902702B2, “Spirocycloheptanes as inhibitors of rock” (BRISTOL-MYERS SQUIBB COMPANY, priority 2014, dated 2018).

One may read the IC50 as the concentration that inhibits the measured activity by half.

The target in this assay is ROCK2 (Homo sapiens, UniProt O75116). Briefly: ROCK assay: phosphorylation of FITC peptide substrate, LABCHIP 3000 mobility shift. Type of assay: biochemical. To be noted: 5 μM ATP, 1.5 μM peptide substrate; read-out: ROCK2 Activity (ROCK IC50 range). An outline of the steps:
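IC50 values come from curve-fitting percent kinase inhibition across a compound dilution series. The reaction is started with Rho kinase variant in HEPES pH 7.5 buffer with MgCl2, Brij-35 and DTT, with 5 μM ATP, 1.5 μM FITC-labelled peptide and under 2% DMSO. After EDTA quench, product and substrate are separated by microfluidic mobility shift.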

Molecules are shown by their SMILES.

Chain of ROCK2 (O75116 whole entry, species assumed): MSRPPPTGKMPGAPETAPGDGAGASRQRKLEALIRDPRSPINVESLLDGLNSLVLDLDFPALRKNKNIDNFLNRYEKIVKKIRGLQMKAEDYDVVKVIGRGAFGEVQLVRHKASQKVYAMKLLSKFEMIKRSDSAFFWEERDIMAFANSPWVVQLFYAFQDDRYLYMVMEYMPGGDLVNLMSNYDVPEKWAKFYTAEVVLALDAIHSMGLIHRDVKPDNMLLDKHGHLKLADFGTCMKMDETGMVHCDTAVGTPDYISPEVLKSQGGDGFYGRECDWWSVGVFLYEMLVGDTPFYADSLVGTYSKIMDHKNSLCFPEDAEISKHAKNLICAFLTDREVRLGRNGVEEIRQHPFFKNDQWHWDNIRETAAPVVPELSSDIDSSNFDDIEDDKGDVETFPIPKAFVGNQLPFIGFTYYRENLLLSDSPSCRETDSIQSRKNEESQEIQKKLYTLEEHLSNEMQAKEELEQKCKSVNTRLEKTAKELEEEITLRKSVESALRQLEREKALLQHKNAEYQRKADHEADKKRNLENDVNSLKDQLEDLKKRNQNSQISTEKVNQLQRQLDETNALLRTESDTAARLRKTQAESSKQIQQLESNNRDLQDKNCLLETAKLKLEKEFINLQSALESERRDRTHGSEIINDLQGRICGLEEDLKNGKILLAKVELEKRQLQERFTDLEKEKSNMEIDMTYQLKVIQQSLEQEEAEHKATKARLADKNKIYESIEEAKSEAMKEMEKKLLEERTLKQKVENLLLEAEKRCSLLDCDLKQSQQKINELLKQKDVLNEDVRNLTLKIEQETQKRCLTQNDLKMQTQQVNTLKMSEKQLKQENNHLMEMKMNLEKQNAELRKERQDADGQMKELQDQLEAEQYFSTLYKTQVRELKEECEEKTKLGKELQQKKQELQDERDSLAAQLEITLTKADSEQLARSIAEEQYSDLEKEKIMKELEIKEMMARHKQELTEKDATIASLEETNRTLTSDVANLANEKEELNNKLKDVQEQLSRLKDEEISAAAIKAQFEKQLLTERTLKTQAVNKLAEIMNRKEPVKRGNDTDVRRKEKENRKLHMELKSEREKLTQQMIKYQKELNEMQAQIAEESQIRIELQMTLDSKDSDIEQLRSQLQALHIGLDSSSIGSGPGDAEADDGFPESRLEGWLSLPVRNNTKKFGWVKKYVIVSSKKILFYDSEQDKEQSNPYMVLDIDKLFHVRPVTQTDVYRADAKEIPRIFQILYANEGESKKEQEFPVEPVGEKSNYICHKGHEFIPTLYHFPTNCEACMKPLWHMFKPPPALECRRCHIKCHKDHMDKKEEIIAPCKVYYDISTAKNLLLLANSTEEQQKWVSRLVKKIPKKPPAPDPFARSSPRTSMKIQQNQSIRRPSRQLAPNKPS

In the case of `O=C(NC1CC2(C1)CC(c1n[nH]c(=O)c3ccccc13)C2)c1cnn2cc(OCCN3CCOCC3)ccc12` [Example 68, 6-(2-morpholinoethoxy)-N-((aR)-6-(4-oxo-3,4-dihydrophthalazin-1-yl)spiro[3.3]heptan-2-yl)pyrazolo[1,5-a]pyridine-3-carboxamide], the IC50 was in the range of 2.01 to 5 nM.

In the case of `[H][C@]1(c2n[nH]c(=O)c3ccccc32)C[C@]2(C[C@@H](NC(=O)c3ccc4c(cnn4C)c3)C2)C1` (stereo partly drawn) [Example 373, 1-methyl-N-((aR)-6-(4-oxo-3,4-dihydrophthalazin-1-yl)spiro[3.3]heptan-2-yl)-1H-indazole-5-carboxamide], the IC50 was 15.1 to 100 nM.

As for `O=C(CCc1ccccc1)NC1CC2(C1)CC(c1n[nH]c(=O)c3ccccc13)C2` (stereo not shown) [Example 6, N-[6-(4-oxo-3,4-dihydrophthalazin-1-yl)spiro[3.3]heptan-2-yl]-3-phenylpropanamide], the IC50 was in the range of 100 to 2100 nM.

`[H][C@]1(c2n[nH]c(=O)c3ccccc32)C[C@]2(C[C@@H](NC(=O)c3cc4ccccc4cn3)C2)C1` (stereo partly drawn) [Example 326, N-((aR)-6-(4-oxo-3,4-dihydrophthalazin-1-yl)spiro[3.3]heptan-2-yl)isoquinoline-3-carboxamide]: the IC50 lay within 2.01 to 5 nM.

Regarding `O=C(NC1CC2(C1)CC(c1n[nH]c(=O)c3ccccc13)C2)c1noc2ccc(Cl)cc12` [Example 290, 5-chloro-N-((aR)-6-(4-oxo-3,4-dihydrophthalazin-1-yl)spiro[3.3]heptan-2-yl)benzo[d]isoxazole-3-carboxamide], the IC50 lay in the range of 2.01 to 5 nM.

With `O=C(NC1CC2(C1)CC(c1n[nH]c(=O)c3ccccc13)C2)c1cnn2cc(CCCN3CCC(F)(F)C3)ccc12` [Example 197, 6-(3-(3,3-difluoropyrrolidin-1-yl)propyl)-N-((aR)-6-(4-oxo-3,4-dihydrophthalazin-1-yl)spiro[3.3]heptan-2-yl)pyrazolo[1,5-a]pyridine-3-carboxamide], the concentration for half-maximal inhibition (IC50) was 0.2 to 2 nM.

As to `O=C(NC1CC2(C1)CC(c1n[nH]c(=O)c3ccccc13)C2)c1cnn2cc(-c3nccs3)ccc12` (stereo not drawn) [Example 173, N-((αR)-6-(4-oxo-3,4-dihydrophthalazin-1-yl)spiro[3.3]heptan-2-yl)-6-(thiazol-2-yl)pyrazolo[1,5-α]pyridine-3-carboxamide], the IC50 was 0.2 to 2 nM.

For the compound `N#Cc1c(OCc2ccccc2)ccc2c(C(=O)NC3CC4(C3)CC(c3n[nH]c(=O)c5ccccc35)C4)cnn12` (stereo not drawn) [Example 127, 6-(benzyloxy)-7-cyano-N-((αR)-6-(4-oxo-3,4-dihydrophthalazin-1-yl)spiro[3.3]heptan-2-yl)pyrazolo[1,5-α]pyridine-3-carboxamide], the IC50 fell in the range of 0.2 to 2 nM.

Consider `[H][C@]1(c2n[nH]c(=O)c3ccccc32)C[C@]2(C[C@@H](NC(=O)c3nnc4ccccn34)C2)C1` (stereo partly drawn) [Example 389, N-((aR)-6-(4-oxo-3,4-dihydrophthalazin-1-yl)spiro[3.3]heptan-2-yl)-[1,2,4]triazolo[4,3-a]pyridine-3-carboxamide], for which the half-inhibitory concentration (IC50) lay within 5.1 to 15 nM.

For the compound `[H][C@]1(c2n[nH]c(=O)c3ccccc32)C[C@@]2(C[C@H](NC(=O)c3ncn4ccccc34)C2)C1` (stereo partly drawn) [Example 292, N-((aR)-6-(4-oxo-3,4-dihydrophthalazin-1-yl)spiro[3.3]heptan-2-yl)imidazo[1,5-a]pyridine-1-carboxamide], the IC50 fell in the range of 15.1 to 100 nM.

In the case of `O=C(NC1CC2(C1)CC(c1n[nH]c(=O)c3ccccc13)C2)c1ccn(CCC(F)(F)F)n1` [Example 22, N-[(aR)-6-(4-oxo-3,4-dihydrophthalazin-1-yl)spiro[3.3]heptan-2-yl]-1-(3,3,3-trifluoropropyl)-1H-pyrazole-3-carboxamide], the half-maximal inhibitory concentration (IC50) fell in the range of 5.1 to 15 nM.

As for `[2H]C([2H])([2H])n1cc(-c2ccc3c(C(=O)NC4CC5(C4)CC(c4n[nH]c(=O)c6ccccc46)C5)cnn3c2)cn1` (stereo not shown) [Example 219], the concentration for half-maximal inhibition (IC50) lay within 0.2 to 2 nM.

`O=C(N[C@H]1CC2(C1)C[C@H](c1n[nH]c(=O)c3ccccc31)C2)c1cc2ccccn2n1` (stereo partly drawn) [Example 325, N-((aR)-6-(4-oxo-3,4-dihydrophthalazin-1-yl)spiro[3.3]heptan-2-yl)pyrazolo[1,5-a]pyridine-2-carboxamide]: the IC50 is 5.1 to 15 nM.

Take `[H][C@]1(c2n[nH]c(=O)c3ccccc32)C[C@]2(C[C@@H](NC(=O)c3cn4cc(Br)ccc4n3)C2)C1` (stereo partly drawn) [Example 363, 6-bromo-N-((aR)-6-(4-oxo-3,4-dihydrophthalazin-1-yl)spiro[3.3]heptan-2-yl)imidazo[1,2-a]pyridine-2-carboxamide]: the IC50 fell in the range of 15.1 to 100 nM.

On to `CC(C)(O)Cn1nc(C(=O)NC2CC3(C2)CC(F)(c2n[nH]c(=O)c4ccccc24)C3)c2ccc(F)cc21` (stereo not shown) [Example 163, 6-fluoro-N-(6-fluoro-6-(4-oxo-3,4-dihydrophthalazin-1-yl)spiro[3.3]heptan-2-yl)-1-(2-hydroxy-2-methylpropyl)-1H-indazole-3-carboxamide], for which the IC50 fell in the range of 15.1 to 100 nM.

For `[H][C@]1(c2n[nH]c(=O)c3ccccc32)C[C@@]2(C[C@H](NC(=O)c3nc4c(s3)CN(C)CC4)C2)C1` (stereo partly drawn) [Example 296, 5-methyl-N-((aR)-6-(4-oxo-3,4-dihydrophthalazin-1-yl)spiro[3.3]heptan-2-yl)-4,5,6,7-tetrahydrothiazolo [5,4-c]pyridine-2-carboxamide], the IC50 fell in the range of 100 to 2100 nM.

Take `CC(C)(O)COc1ccc2c(C(=O)NC3CC4(C3)CC(c3n[nH]c(=O)c5ccccc35)C4)cnn2c1` [Example 67, 6-(2-hydroxy-2-methylpropoxy)-N-((aR)-6-(4-oxo-3,4-dihydrophthalazin-1-yl)spiro[3.3]heptan-2-yl)pyrazolo[1,5-a]pyridine-3-carboxamide]: the half-maximal inhibitory concentration (IC50) lay within 2.01 to 5 nM.

On to `O=C(N[C@H]1CC2(C1)C[C@H](c1n[nH]c(=O)c3ccccc31)C2)N1Cc2ccccc2C1` (stereo partly drawn) [Example 51, N-((aR)-6-(4-Oxo-3,4-dihydrophthalazin-1-yl)spiro[3.3]heptan-2-yl)isoindoline-2-carboxamide], for which the 50% inhibitory concentration (IC50) was 5.1 to 15 nM.

On to `[H][C@]1(c2n[nH]c(=O)c3ccccc32)C[C@]2(C[C@@H](NC(=O)c3cnc4cc(C(F)(F)F)ccn34)C2)C1` (stereo partly drawn) [Example 403, N-((aR)-6-(4-oxo-3,4-dihydrophthalazin-1-yl)spiro[3.3]heptan-2-yl)-7-(trifluoromethyl)imidazo[1,2-a]pyridine-3-carboxamide], for which the IC50 fell in the range of 2.01 to 5 nM.

Consider `Cn1cc(-c2ccc3c(C(=O)NC4CC5(C4)CC(c4n[nH]c(=O)c6ccccc46)C5)cnn3c2)cn1` (stereo not drawn) [Example 170, 6-(1-methyl-1H-pyrazol-4-yl)-N-((αR)-6-(4-oxo-3,4-dihydrophthalazin-1-yl)spiro[3.3]heptan-2-yl)pyrazolo[1,5-α]pyridine-3-carboxamide], for which the IC50 lay within 0.2 to 2 nM.

Consider `[H][C@]1(c2n[nH]c(=O)c3ccccc32)C[C@]2(C[C@@H](NC(=O)c3cnc4c(OCc5ccccc5)cccn34)C2)C1` (stereo partly drawn) [Example 413, 8-(benzyloxy)-N-((aR)-6-(4-oxo-3,4-dihydrophthalazin-1-yl)spiro[3.3]heptan-2-yl)imidazo[1,2-a]pyridine-3-carboxamide], for which the IC50 was 0.2 to 2 nM.

Turning to `[H][C@]1(c2n[nH]c(=O)c3ccccc32)C[C@]2(C[C@@H](NC(=O)c3cc4cc(OCc5ccccc5)ccc4[nH]3)C2)C1` (stereo partly drawn) [Example 319, 5-(benzyloxy)-N-((aR)-6-(4-oxo-3,4-dihydrophthalazin-1-yl)spiro[3.3]heptan-2-yl)-1H-indole-2-carboxamide], the half-maximal inhibitory concentration (IC50) fell in the range of 15.1 to 100 nM.
